“Also recorded” adds a separate entry of the source.
Assays:
RBM39 = target: T1, RBM39 (Homo sapiens, UniProt Q14498+Q66K64); assay: RBM39 degradation in cells (western blotting); format: cell-based; conditions: HCT-116 cells; dose dependent, evident as early as two hours after treatment
T1 construct: triggers the degradation of RBM39 in parental HCT-116 cells; endogenous in cells; host or cells: HCT-116
Description: Proteins were resolved on SDS-PAGE and transferred to 0.5 μm nitrocellulose membranes. Membranes were blocked in 5% milk TBST for 30 min, and then anti-RBM39 antibodies (HPA001591, Sigma-Aldrich) were added in 5% milk (1:5000) and incubated on a shaker overnight at 4° C. After three 5 min washes with TBST, membranes were incubated with HRP-conjugated goat anti-rabbit secondary antibody (Bio-Rad) for 2 hr at room temperature. After three 5 min washes with TBST, membranes were developed with ECL (enhanced chemiluminescence) substrates.

DCAF15−/− H1155 cells = assay: Cell viability assay, DCAF15−/− cells; format: cell-based, human; conditions: at concentrations as high as 50 μM
Description: (§1) 12-point dose responses were performed on 96-well assay plates with cell plating (1500-4000 cell per well) on day 1, compound addition on day 2, and survival measurement on day 5. Compounds were diluted in DMSO before adding to the cells. Final DMSO concentration was 0.5%. Cell survival assay was performed using CellTiter-Glo Luminescent Cell Viability Assay kit (Promega) that measures cellular ATP content. Luminescence was recorded by EnVison multimode plate reader (Perkin Elmer). IC50 was determined with GraphPad Prism using baseline correction (by normalizing to DMSO control), the asymmetric (five parameter) equation and least squares fit.
Two independent guide RNAs targeting DDB1, DDA1, DCAF15 were cloned into PX459. 0.2 million H1155 RBM39-AcGFP cells were transfected with PX459 sgRNA constructs and selected with 2 μg/ml puromycin to enrich for transfected cells. […] Cells were then trypsinized and the expression of RBM39-AGFP was quantified with flow cytometry. H1155 cells transfected with DCAF15 guide RNA were sparsely plated on 10 cm^2 plates and clones were isolated. Genomic DNA sequence flanking the cut site were amplified and sequenced to identify DCAF15−/− clones.

[1] = test system: HCT-116 cells expressing wild type or mutant RBM39; assay: Transient transfection of RBM39 cDNA, crystal violet staining; format: cell-based, human; conditions: 2 μM indisulam
Description: RBM39 was PCR amplified from U2OS cDNA and cloned into pLVX IRES zsGreen1 (Clontech). Mutagenesis of RBM39 was performed using Q5 site-directed mutagenesis kit (NEB) and primers were designed using the NEBaseChanger web server (nebasechanger.neb.com/). For transient transfection, 0.1 million HCT-116 cells were seeded per well in a 12-well plate on day 1. On day 2, cells were transfected with 1 μg of plasmid (pLVX IRES zsGreen containing wild type or mutant RBM39). […] For crystal violet staining, cells on plates were stained with 0.05% crystal violet, 1% formaldehyde in 1×PBS for 20 min at room temperature, followed by several rinses with deionized water to remove free stain.

[2] = test system: tumors derived from parental HCT-116 cells; assay: Mouse xenograft model, parental HCT-116; format: in vivo, Nod-Scid IL-2Rγ KO mice
Description: All animal work was approved by the Institutional Animal Care and Use Committee at UTSW. UTSW is accredited by the Association for Assessment and Accreditation of Laboratory Animal Care International (AAALAC). Animals were obtained from the UTSW Breeding Core Facility. Nod-Scid IL-2Rγ KO mice were implanted with 5 million parental HCT-116 cells or HCT-116 cells expressing RBM39 G268V in a volume of 0.1 ml in the left flank. Tumor volumes were measured every 2-4 days with calipers. Volume is calculated as (L*W^2)*3.14)/6.

[3] = test system: indisulam resistant HCT-116 clones; assay: Cell viability assay, indisulam resistant clones; format: cell-based, human
Description: The methods for generating a population of barcoded HCT-116 cells were described before (20). […] Clones that appeared after the selection was then expanded and barcode genotyped to identify six clones with unique barcodes. […] Source data for exome sequencing data is available under NCBI SRA accession SRP068238. Bortezomib resistant clones were isolated by selection with 5 nM bortezomib, and MLN4924 resistant clones with 40 nM MLN4924.
as §1

[4] = target: T2, RBM39-3xFLAG with DDA1, DDB1, CUL4A (Homo sapiens, UniProt Q14498+Q66K64); assay: In vitro formation of RBM39-CUL4-DCAF15 complex in lysates; format: binding; conditions: indisulam dose-dependent manner
T2 construct: endogenous in cells; host or cells: HCT-116 RBM39-3xFLAG knock-in cells (treated cells in A90)
Description: First, we reconstituted formation of the RBM39-CUL4-DCAF15 complex in vitro (FIG. 4, panel A).
Anti-Flag M2 antibody (Sigma-Aldrich) was coupled to Dynabeads M-270 epoxy beads (Life Technologies) at the ratio of 10 μg of antibody/mg beads. […] Frozen cells were then pulverized in the a cryomill (Retsch) with one 25 mm steel ball and five cycles of three min at 25 Hz with intermittent cooling in liquid nitrogen. […] The lysates were centrifuged at 8000 g for 5 min at 4° C. 12 mg of conjugated Anti-Flag magnetic beads were mixed with clarified lysates for 5 min at 4° C. on a rotating platform, followed by three washes with IP buffer. Bound proteins were eluted with 1 mg/ml 3xFLAG peptide, followed by SDS-PAGE on a 10% Bis Tris gel. After brief electrophoresis, bands containing all the proteins were cut with clean blades. For western blotting of co-immunoprecipitated proteins, anti-DDA1 (ProteinTech, 14995-1-AP, 1:1000), anti-DDB1 (Abcam, ab109027, 1;10000), anti-CUL4A (Cell Signaling, 2699, 1:1000), anti-CUL4B (ProteinTech, 12916-1-AP, 1:1000) were used.

Which results are given for NS(=O)(=O)c1ccc(S(=O)(=O)Nc2cccc3c(Cl)c[nH]c23)cc1 [Indisulam, indisulam]?
amount of RBM39 protein (RBM39): reduced; sensitivity of DCAF15−/− cells (DCAF15−/− H1155 cells): insensitive; cell survival (crystal violet) ([1]; mock-transfected or wild type RBM39): not indisulam resistant; cell survival (crystal violet) ([1]; transient expression of eight different RBM39 mutants): conferred resistance; tumor response ([2]; 25 mg/kg indisulam intravenous once a day for eight days): complete regression; also recorded: regress; Average maximal weight loss from start of therapy to 1 day post final dose ([2]; parental HCT-116 xenograft, 25 mg/kg once a day for eight days): 5.2%; IC50 ([3]; Homo sapiens, HCT-116): 9.3 µM; sensitivity of indisulam resistant clones ([3]; five of six clones, concentrations as high as 50): insensitive; times less sensitive than the parental HCT-116 cells ([3]; sixth indisulam resistant clone): 17 times; co-purification of DDA1, DDB1, CUL4A with RBM39-3xFLAG in lysates [4]: co-purified

From US20180140578A1, “METHODS AND COMPOSITIONS FOR THE DIAGNOSIS AND SELECTIVE TREATMENT OF CANCER” (Board of Regents of the University of Texas System, priority 2016, published 2018)
